Target: T1, Recombinant human liver GK1 (GST-GK) (Homo sapiens, UniProt P35557)
T1 construct: made in house; host or cells: E. coli
T1 sequence (P35557 1-466 isoform P35557-2): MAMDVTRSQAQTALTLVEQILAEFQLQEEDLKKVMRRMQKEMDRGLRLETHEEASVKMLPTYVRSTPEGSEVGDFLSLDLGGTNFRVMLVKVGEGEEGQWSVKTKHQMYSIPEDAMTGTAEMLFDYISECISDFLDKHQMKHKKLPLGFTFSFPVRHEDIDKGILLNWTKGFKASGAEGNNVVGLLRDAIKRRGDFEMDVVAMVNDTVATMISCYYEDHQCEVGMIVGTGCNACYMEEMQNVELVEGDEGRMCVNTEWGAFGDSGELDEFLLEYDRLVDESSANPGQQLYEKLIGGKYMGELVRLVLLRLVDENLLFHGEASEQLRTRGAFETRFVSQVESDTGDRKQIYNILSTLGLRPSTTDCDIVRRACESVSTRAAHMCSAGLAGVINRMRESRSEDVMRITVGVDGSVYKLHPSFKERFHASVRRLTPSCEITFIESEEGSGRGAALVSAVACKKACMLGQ
Assay: Glucokinase in vitro assay (G6PDH-coupled, NADH generation)
Assay type: biochemical
Conditions: concentration of activator that produced a 50% increase in the activity of GK; 5 mM D-glucose, 30° C., pH 7.1
Procedure: Glucokinase In Vitro Assay Protocol: Glucokinase (GK) was assayed by coupling the production of glucose-6-phosphate to the generation of NADH with glucose-6-phosphate dehydrogenase (G6PDH, 0.75-1 kunits/mg; Boehringer Mannheim, Indianapolis, Ind.) from Leuconostoc mesenteroides as the coupling enzyme:
Recombinant human liver GK1 was expressed in E. coli as a glutathione S-transferase fusion protein (GST-GK) [Liang et al, 1995] and was purified by chromatography over a glutathione-Sepharose 4B affinity column using the procedure provided by the manufacturer (Amersham Pharmacia Biotech, Piscataway, N.J.).
The assay was conducted at 30° C. in a flat bottom 96-well tissue culture plate from Costar (Cambridge, Mass.) with a final incubation volume of 120 μL. The incubation reaction contained the following: 25 mM Hepes buffer (pH 7.1), 25 mM KCl, 5 mM D-glucose, 1 mM ATP, 1.8 mM NAD, 2 mM MgCl2, 1 μM sorbitol-6-phosphate, 1 mM dithiothreitol, test drug or 10% DMSO, ˜7 units/ml G6PDH, and GK (see below). All organic reagents were >98% pure and were from Boehringer Mannheim with the exceptions of D-glucose and Hepes which were from Sigma Chemical Co, St Louis, Mo. Test compounds were dissolved in DMSO and were added to the incubation reaction minus GST-GK in a volume of 12 μL to yield a final DMSO concentration of 10%. This mix was pre-incubated in the temperature controlled chamber of a SPECTRAmax 250 microplate spectrophotometer (Molecular Devices Corporation, Sunnyvale, Calif.) for 10 minutes to allow temperature equilibrium and then the reaction was started by the addition of […].
After addition of enzyme, the increase in optical density (OD) at 340 nm was monitored spectrophotometrically to determine the rate of change (OD340 per min). The GK activity (0D340/min) in control wells (10% DMSO minus GK activators) was compared with the activity in wells containing test GK activators, and the concentration of activator that produced a 50% increase in the activity of GK, i.e., the SC1.5, was calculated. The table below provides the in vitro glucokinase activity for the compounds in the Examples: […]

CC(C)CC(C(=O)Nc1ccn(C)n1)n1ccc(Oc2cccc(F)c2F)cc1=O (stereo not drawn) [Example 1, 2-[4-(2,3-Difluoro-phenoxy)-2-oxo-2H-pyridin-1-yl]-4-methyl-pentanoic acid (1-methyl-1H-pyrazol-3-yl)-amide]
SC1.5 average: 10.4 µM

CC(C)CC(C(=O)Nc1ccn(C)n1)n1ccc(Oc2cccc(F)c2)cc1=O (stereo not drawn) [Example 2, 2-[4-(3-Fluoro-phenoxy)-2-oxo-2H-pyridin-1-yl]-4-methyl-pentanoic acid (1-methyl-1H-pyrazol-3-yl)-amide]
SC1.5 average: >30 µM

CC(C)CC(C(=O)Nc1ccn(C)n1)n1ccc(Oc2ccccc2)cc1=O (stereo not drawn) [Example 3, 4-Methyl-2-(2-oxo-4-phenoxy-2H-pyridin-1-yl)-pentanoic acid (1-methyl-1H-pyrazol-3-yl)-amide]
SC1.5 average: 21.7 µM

Cc1ccccc1Oc1ccn(C(CC(C)C)C(=O)Nc2ccn(C)n2)c(=O)c1 (stereo not drawn) [Example 4, 4-Methyl-2-(2-oxo-4-o-tolyloxy-2H-pyridin-1-yl)-pentanoic acid (1-methyl-1H-pyrazol-3-yl)-amide]
SC1.5 average: 7.3 µM

CC(C)CC(C(=O)Nc1ccn(C)n1)n1ccc(Oc2c(F)cccc2F)cc1=O (stereo not drawn) [Example 5, 2-[4-(2,6-Difluoro-phenoxy)-2-oxo-2H-pyridin-1-yl]-4-methyl-pentanoic acid (1-methyl-1H-pyrazol-3-yl)-amide]
SC1.5 average: 4.2 µM

CC(C)CC(C(=O)Nc1ccn(C)n1)n1ccc(Oc2ccccc2C(F)(F)F)cc1=O (stereo not drawn) [Example 6, 4-Methyl-2-[2-oxo-4-(2-trifluoromethyl-phenoxy)-2H-pyridin-1-yl]-pentanoic acid (1-methyl-1H-pyrazol-3-yl)-amide]
SC1.5 average: 11.4 µM

CC(C)CC(C(=O)Nc1ccn(C)n1)n1ccc(Oc2ccc(F)cc2)cc1=O (stereo not drawn) [Example 7, 2-[4-(4-Fluoro-phenoxy)-2-oxo-2H-pyridin-1-yl]-4-methyl-pentanoic acid (1-methyl-1H-pyrazol-3-yl)-amide]
SC1.5 average: >30 µM

CC(C)CC(C(=O)Nc1ccn(C)n1)n1ccc(Oc2cccnc2)cc1=O (stereo not drawn) [Example 8, 4-Methyl-2-[2-oxo-4-(pyridin-3-yloxy)-2H-pyridin-1-yl]-pentanoic acid (1-methyl-1H-pyrazol-3-yl)-amide]
SC1.5 average: 26.1 µM

CC(C)CC(C(=O)Nc1ccn(C)n1)n1ccc(Oc2ccccc2-c2ccccc2)cc1=O (stereo not drawn) [Example 9, 2-[4-(Biphenyl-2-yloxy)-2-oxo-2H-pyridin-1-yl]-4-methyl-pentanoic acid (1-methyl-1H-pyrazol-3-yl)-amide]
SC1.5 average: >30 µM

CC(C)CC(C(=O)Nc1ccn(C)n1)n1ccc(Oc2ccccc2C(C)C)cc1=O (stereo not drawn) [Example 10, 2-[4-(2-Isopropyl-phenoxy)-2-oxo-2H-pyridin-1-yl]-4-methyl-pentanoic acid (1-methyl-1H-pyrazol-3-yl)-amide]
SC1.5 average: 4.5 µM

CC(C)CC(C(=O)Nc1ccn(C)n1)n1ccc(Oc2ccc(F)cc2F)cc1=O (stereo not drawn) [Example 11, 2-[4-(2,4-Difluoro-phenoxy)-2-oxo-2H-pyridin-1-yl]-4-methyl-pentanoic acid (1-methyl-1H-pyrazol-3-yl)-amide]
SC1.5 average: 22.5 µM

Cc1c(Cl)cccc1Oc1ccn(C(CC(C)C)C(=O)Nc2ccn(C)n2)c(=O)c1 (stereo not drawn) [Example 12, 2-[4-(3-Chloro-2-methyl-phenoxy)-2-oxo-2H-pyridin-1-yl]-4-methyl-pentanoic acid (1-methyl-1H-pyrazol-3-yl)-amide]
SC1.5 average: 9.0 µM

CC(C)CC(C(=O)Nc1ccn(C)n1)n1ccc(Oc2cc(F)ccc2F)cc1=O (stereo not drawn) [Example 13, 2-[4-(2,5-Difluoro-phenoxy)-2-oxo-2H-pyridin-1-yl]-4-methyl-pentanoic acid (1-methyl-1H-pyrazol-3-yl)-amide]
SC1.5 average: 16.6 µM

CC(C)CC(C(=O)Nc1ccn(C)n1)n1ccc(Oc2cccc3ccccc23)cc1=O (stereo not drawn) [Example 14, 4-Methyl-2-[4-(naphthalen-1-yloxy)-2-oxo-2H-pyridin-1-yl]-pentanoic acid (1-methyl-1H-pyrazol-3-yl)-amide]
SC1.5 average: 2.6 µM

CC(C)CC(C(=O)Nc1ccn(C)n1)n1ccc(Oc2ccccc2Cl)cc1=O (stereo not drawn) [Example 15, 2-[4-(2-Chloro-phenoxy)-2-oxo-2H-pyridin-1-yl]-4-methyl-pentanoic acid (1-methyl-1H-pyrazol-3-yl)-amide]
SC1.5 average: 6.2 µM

CC(C)CC(C(=O)Nc1ccn(C)n1)n1ccc(Oc2ccccc2OC(F)(F)F)cc1=O (stereo not drawn) [Example 16, 4-Methyl-2-[2-oxo-4-(2-trifluoromethoxy-phenoxy)-2H-pyridin-1-yl]pentanoic acid (1-methyl-1H-pyrazol-3-yl)-amide]
SC1.5 average: 8.8 µM

CC(C)CC(C(=O)Nc1ccn(C)n1)n1ccc(Oc2ccccc2F)cc1=O (stereo not drawn) [Example 17, 2-[4-(2-Fluoro-phenoxy)-2-oxo-2H-pyridin-1-yl]-4-methyl-pentanoic acid (1-methyl-1H-pyrazol-3-yl)-amide]
SC1.5 average: 8.4 µM

COc1ccccc1Oc1ccn(C(CC(C)C)C(=O)Nc2ccn(C)n2)c(=O)c1 (stereo not drawn) [Example 18, 2-[4-(2-Methoxy-phenoxy)-2-oxo-2H-pyridin-1-yl]-4-methyl-pentanoic acid (1-methyl-1H-pyrazol-3-yl)-amide]
SC1.5 average: 8.1 µM
